Six compounds from patent US4980365A, “N-substituted-5,6-dimethoxy-1,2-benzisoxazole-3-propanamine and related compounds as analgesic and hypotensive agents” (Hoechst-Roussel Pharmaceuticals Inc., priority 1987, dated 1990) can be followed below.

Structures are written as SMILES. Where two headings read alike, the source gives them in different places.

Experiment [1] has as its system spontaneous hypertensive rat. Put plainly: Antihypertensive activity in the spontaneous hypertensive rat, indirect tail cuff method. It is filed as in vivo. To be noted: at 50 mg/kg, p.o.; treated orally for three days, measured on the third day. The method, then: Compounds of the present invention are also useful as antihypertensive agents due to their ability to depress blood pressure in mammals. Antihypertensive activity is measured in the spontaneous hypertensive rat by the indirect tail cuff method described in "Methods in Pharmacology", A. Schwartz, Ed., Vol. I, Appleton-Century Crofts, New York, N.Y., 1971, p. 135. In this procedure a group of five animals are treated orally for three days with the test compound in relation to a control group of the same number. The drop in blood pressure is measured on the third day following administration. The antihypertensive activities of some of the compounds, expressed as a decrease in mean arterial blood pressure (in mm Hg), are given in Table 2.

For experiment [2], the system named is 2-phenyl-1,4-benzoquinone-induced writhing. Put plainly: 2-phenyl-1,4-benzoquinone-induced writhing test in mice (analgesic activity, phenylquinone writhing). It is filed as in vivo. To be noted: Mus musculus, sc, read-out: ED50 (Analgesic Activity, Phenylquinone Writhing). The text has this:
Compounds of this invention having formula I are useful as analgesic agents due to their ability to alleviate pain in mammals. […] Exptl. Biol. Med. […], 729 (1957)].

In experiment [3] the target is α1-adrenergic receptor. The experiment can be described thus: [3H]-WB4101: α1-adrenergic receptor binding in rat brain. To be noted: rat brain membranes minus cerebella, 0.5 nM 3H-WB4101, pH 7.7, 15 minutes; read-out: [3H]-WB4101: α1-Adrenergic Receptor (IC50) Antagonist Activity.
Experimental: RECEPTOR BINDING IN RAT BRAIN
This in vitro [^3 H]-WB4101 receptor binding assay quantitates the primary blood pressure lowering effects through α1 -receptor blockade. […] WB4101 labels an antagonist binding site on the α1 -adrenoceptor, since it is preferentially displaced by antagonists while α-noradrenergic agonists preferentially displace the ^3 H-agonists
57.2 g Tris HCl 16.2 g Tris base q.s. to 1 liter (0.5M Tris buffer, pH 7.7 at 25° C.).
Make a 1:10 dilution in distilled H2 O (0.05M Tris Buffer, pH 7.7)
[Phenoxy-3-^3 H(N)]-WB4101, (2-(2,6-dimethoxyphenoxyethyl)aminomethyl-1,4-benzodioxane, (20-25 Ci/mmol) is obtained from New England Nuclear.
L-norepinephrine bitartrate is obtained from Sigma Chemical Co.
A 10 mM stock solution of norepinephrine is made up in 0.01N HCl and 20 micro liter added to three tubes to determine nonspecific binding. This yields a final concentration of 100 micro liter in the assay.
For most assays, a 1 mM stock solution is made up in a suitable solvent and serially diluted, such that the final concentration in the assay ranges from 10^-5 to 10^-8 M. Seven concentrations are usually used for each assay.
Male Wistar rats (100-150 g) are killed by decapitation and their brains rapidly removed. […]
Sample tubes are kept on ice for additions, then vortexed and incubated for 15 minutes at 15° C. […] The filters are counted in 10 ml of liquid scintillation cocktail. […]

As for `COc1cc2onc(CCCN3CCN(c4ccccc4OC)CC3)c2cc1OC` [3-[3-[4-(2-methoxyphenyl)-1-piperazinyl]propyl]-5,6-dimethoxy-1,2-benzisoxazole], in experiment [1], the “Pressure Drop (decrease in mean arterial blood pressure)” value is on record as 68 mmHg. In addition, the ED50 in experiment [2] (mice) came out at 1.7 mg/kg.
On to `COc1ccc([C@@H]2Sc3ccccc3N(CCN(C)C)C(=O)[C@@H]2OC(C)=O)cc1` [Diltiazem, reference compound], for which the “Pressure Drop (decrease in mean arterial blood pressure)” value in experiment [1] amounted to 39 mmHg.
Regarding `COc1cc2onc(CCCNCCc3ccccc3)c2cc1OC.Cl` [N-(2-phenylethyl)-5,6-dimethoxy-1,2-benzisoxazole-3-propanamine hydrochloride], the “Pressure Drop (decrease in mean arterial blood pressure)” value in experiment [1] was 32 mmHg. In addition, the IC50 in experiment [3] is 83 nM.
For the compound `COc1cc2onc(CCCNCCc3ccc(F)cc3)c2cc1OC.Cl` [N-[2-(4-fluorophenyl)ethyl]-5,6-dimethoxy-1,2-benzisoxazole-3-propanamine hydrochloride], the 50% effective dose (ED50) in experiment [2] (mice) was determined as 3.8 mg/kg.
With `COc1cc2onc(CCCN(C)CCc3ccccc3)c2cc1OC.O=C(O)C(=O)O` [N-methyl-N-(2-phenylethyl)-5,6-dimethoxy-1,2-benzisoxazole-3-propanamine oxalate], the 50% effective dose (ED50) in experiment [2] (mice) is 13.6 mg/kg. Moreover, the concentration for half-maximal inhibition (IC50) in experiment [3] was determined as 67 nM.
Turning to `CC(C)=CCN1CCC2(C)c3cc(O)ccc3CC1C2C` (stereo not drawn) [pentazocine, reference compound], the ED50 in experiment [2] turned out to be 1.3 mg/kg.

Broadly, the ED50 is the midpoint of the dose-response relation. By IC50 is commonly meant the point on the concentration scale where inhibition reaches its midpoint.
